Results: patent US20060233883A1, “Intravenous nanoparticles for targeting drug delivery and sustained drug release” (priority 2003, published 2006)

Experiments:
inflammatory sites = assay: Accumulation of nanoparticles in inflammatory sites (carrageenin leg edema, fluorescence microscopy); format: in vivo, male Lewis rats; conditions: single tail vein injection 4 hours after carrageenin; 2 hours after administration
Experimental: Inflammation was induced by injecting 100 μl physiological saline containing 1% carrageenin in the left hind paw of male Lewis rats. After 4 hours, single dosages of rhodamine-encapsulating nanoparticles of two different sizes (200 nm and 500 nm) were injected into a tail vein. 2 hours after administration, the resultant leg edema was cut and cryostat sections were prepared.
As controls, one group was administered with physiological saline and another group with rhodamine alone.

[1] = Encapsulation of steroids into PLGA nanoparticles (steroid content by HPLC); format: physicochemical; conditions: for Steroid/nanoparticle (wt %): PLGA nanoparticles
Experimental: Each mixture was centrifuged at 12,000 rpm for 5 min and the supernatant was discarded to obtain precipitates in the form of zinc-steroids or iron-steroids. […] To each of the resultant solutions, an aqueous solution of zinc acetate was added and the mixture was allowed to stand for 2 hours at room temperature. […] The mixture was then centrifuged at 20,000 G for 20 min. Following the removal of the supernatant, the residue was resuspended in water and the suspension was again centrifuged to wash the nanoparticles. […] Similarly, the amount of water-insoluble steroid was determined for the nanoparticles prepared by different method without metal ions.

[2] = Formation of water-insoluble precipitates of drugs with metal ions (turbidity observed); format: physicochemical; conditions: for Formation of precipitates with metal ions: 3N HCl, 20 mM drug in 0.2M Tris-HCl pH 7.8
[3] = as above; format: physicochemical; conditions: 20 mM drug in 0.2M Tris-HCl pH 7.8 + equal volume 100 mM metal ion
Experimental: Compounds shown in Table 1 below were used to as the low-molecular weight, water-soluble and non-peptide drug having phosphate groups. […] The solution was then added to equal volume of 100 mM aqueous solutions of different metal ions. The turbidity of each of the resulting mixtures was observed.

rhodamine
accumulation of the nanoparticles in the inflammatory sites (fluorescence in tissue sections) (inflammatory sites): No significant accumulation

CC(=O)OCC(=O)[C@@]1(O)[C@@H](C)C[C@H]2[C@@H]3CCC4=CC(=O)C=C[C@]4(C)[C@@]3(F)[C@@H](O)C[C@@]21C [betamethasone acetate]
Steroid/nanoparticle (wt %) [1]: 0.15 wt %

CCC(=O)OCC(=O)[C@@]1(OC(=O)CC)[C@@H](C)C[C@H]2[C@@H]3CCC4=CC(=O)C=C[C@]4(C)[C@@]3(F)[C@@H](O)C[C@@]21C [BDP, betamethasone dipropionate]
Steroid/nanoparticle (wt %) [1]: 0.47 wt %

C[C@H]1C[C@H]2[C@@H]3CCC4=CC(=O)C=C[C@]4(C)[C@@]3(F)[C@@H](O)C[C@]2(C)[C@@]1(O)C(=O)COP(=O)(O)O [BP-Na, betamethasone phosphate]
Steroid/nanoparticle (wt %) [1]: 0 wt %

Naphthyl-phosphate
Formation of precipitates with metal ions [2]: − | Formation of precipitates with metal ions ([3]; CuCl2): − | Formation of precipitates with metal ions ([3]; FeCl2): +++ | Formation of precipitates with metal ions ([3]; FeCl3): +++ | Formation of precipitates with metal ions ([3]; MgCl2): − | Formation of precipitates with metal ions ([3]; NiCl2): − | Formation of precipitates with metal ions ([3]; Zn(CH3COO)2): +++ | Formation of precipitates with metal ions ([3]; ZnCl2): +++

C[C@@H]1C[C@H]2[C@@H]3CCC4=CC(=O)C=C[C@]4(C)[C@@]3(F)[C@@H](O)C[C@]2(C)[C@@]1(O)C(=O)COP(=O)(O)O [DP-Na, dexamethasone phosphate]
Steroid/nanoparticle (wt %) [1]: 0 wt %

C[C@@H]1C[C@H]2[C@@H]3CCC4=CC(=O)C=C[C@]4(C)[C@@]3(F)[C@@H](O)C[C@]2(C)[C@@]1(O)C(=O)COP(=O)(O)O [DP-Zn, dexamethasone phosphate]
Steroid/nanoparticle (wt %) [1]: 1.15 wt %

C[C@H]1C[C@H]2[C@@H]3CCC4=CC(=O)C=C[C@]4(C)[C@@]3(F)[C@@H](O)C[C@]2(C)[C@@]1(O)C(=O)COP(=O)(O)O [BP-Fe, betamethasone phosphate]
Steroid/nanoparticle (wt %) [1]: 1.15 wt %

C[C@H]1C[C@H]2[C@@H]3CCC4=CC(=O)C=C[C@]4(C)[C@@]3(F)[C@@H](O)C[C@]2(C)[C@@]1(O)C(=O)COP(=O)(O)O [BP-Zn, betamethasone phosphate]
Steroid/nanoparticle (wt %) [1]: 2.03 wt %

C[C@H]1C[C@H]2[C@@H]3CCC4=CC(=O)C=C[C@]4(C)[C@@]3(F)[C@@H](O)C[C@]2(C)[C@@]1(O)C(=O)COP(=O)(O)O [betamethasone phosphate]
Formation of precipitates with metal ions [2]: − | dispersion state of the nanoparticles ([1]; 500 μl or less of acetone): formed aggregates | dispersion state of the nanoparticles ([1]; 700 μl acetone): remained stably dispersed | Steroid/nanoparticle (wt %) ([1]; zinc precipitate of 5 mg, acetone 700 μl): 7.34 wt % | Steroid/nanoparticle (wt %) ([1]; zinc precipitate of 5 mg, acetone 900 μl): 4.28 wt % | Steroid/nanoparticle (wt %) ([1]; zinc precipitate of 5 mg, acetone 1100 μl): 3.46 wt % | Steroid/nanoparticle (wt %) ([1]; zinc precipitate of 5 mg, acetone 1300 μl): 2.71 wt % | Steroid/nanoparticle (wt %) ([1]; zinc precipitate of 5 mg, acetone 1500 μl): 1.93 wt % | Formation of precipitates with metal ions ([3]; CuCl2): +++ | Formation of precipitates with metal ions ([3]; FeCl2): +++ | Formation of precipitates with metal ions ([3]; FeCl3): +++ | Formation of precipitates with metal ions ([3]; MgCl2): − | Formation of precipitates with metal ions ([3]; NiCl2): − | Formation of precipitates with metal ions ([3]; Zn(CH3COO)2): +++ | Formation of precipitates with metal ions ([3]; ZnCl2): +++

hydrocortisone phosphate [HP-Zn]
Steroid/nanoparticle (wt %) [1]: 1.05 wt %

Cc1cc2nc3c(=O)[nH]c(=O)nc-3n(C[C@H](O)[C@H](O)[C@H](O)COP(=O)(O)O)c2cc1C [riboflavin phosphate]
Formation of precipitates with metal ions [2]: − | molar ratio with respect to zinc ion at which precipitate formation was most significant ([2]; zinc ion, molar ratio varied): approximately 1 | Formation of precipitates with metal ions ([3]; CuCl2): +++ | Formation of precipitates with metal ions ([3]; FeCl2): +++ | Formation of precipitates with metal ions ([3]; FeCl3): +++ | Formation of precipitates with metal ions ([3]; MgCl2): − | Formation of precipitates with metal ions ([3]; NiCl2): − | Formation of precipitates with metal ions ([3]; Zn(CH3COO)2): +++ | Formation of precipitates with metal ions ([3]; ZnCl2): +++

hydrocortisone phosphate [HP-Na]
Steroid/nanoparticle (wt %) [1]: 0 wt %

C[C@@H]1C[C@H]2[C@@H]3CCC4=CC(=O)C=C[C@]4(C)[C@@]3(F)[C@@H](O)C[C@]2(C)[C@@]1(O)C(=O)COP(=O)(O)O [Dexamethasone phosphate, dexamethasone phosphate]
Formation of precipitates with metal ions [2]: − | Formation of precipitates with metal ions ([3]; CuCl2): +++ | Formation of precipitates with metal ions ([3]; FeCl2): +++ | Formation of precipitates with metal ions ([3]; FeCl3): +++ | Formation of precipitates with metal ions ([3]; MgCl2): − | Formation of precipitates with metal ions ([3]; NiCl2): + | Formation of precipitates with metal ions ([3]; Zn(CH3COO)2): +++ | Formation of precipitates with metal ions ([3]; ZnCl2): +++
